Values of other authors, collected in patent publication US20050049232A1, “Composition” (priority 2001, published 2005).

Test system: androgenic alopecia patients
Settings: topical solutions, alone or in combination with skin penetration enhancers such as DMSO

Structure (SMILES): Nc1cc(N2CCCCC2)nc(N)[n+]1[O-] [minoxidil, 2,4-diamino-6-piperidino-pyrimidine-3-oxide]
- patients with moderate to dense regrowth of hair: less than 40%
